Reference: patent US5648347A, “Arylmorpholine, preparation and use” (Glaxo Wellcome Inc., priority 1991, dated 1997)
Structures can show the parent of a compound that is named as a salt.

test system: tetrabenazine-induced sedation; test: Antitetrabenazine Test: prevention of tetrabenazine-induced sedation in mice; format: in vivo, Mouse (CD1 males); settings: 0.5 h; Antitetrabenazine Activity in the Mouse; compound ip 30 min before tetrabenazine hydrochloride (ip); scored 30 min after tetrabenazine; read-out: ED50 (amount of the test compound required to reverse the tetrabenazine effects in 50 percent of the animals tested)
Protocol: Prevention of tetrabenazine-induced sedation was measured using a modification of the method of Vernier et al., First Hahnemann Symposium on Psychosomatic Medicine, ed. Nodim and Moyer, pub. Lea and Febiger, Philadelphia, 1962.
Mice, groups of 12 CD1 males each, were injected intraperitoneally (ip) with the hydrochloride salt of a compound of formula (I) in physiological saline solution or with physiological saline solution alone. Thirty minutes later each of the mice was injected (ip, 35 mg/kg) with a solution of tetrabenazine hydrochloride. Thirty minutes after the injection of tetrabenazine each mouse was examined for its level of exploratory behavior which was scored on a modification of the arbitrary scale defined by Vernier et. al. The result reported in Table I as the ED50 value is the amount of the test compound required to reverse the tetrabenazine effects in 50 percent of the animals tested.

Point of comparison: `C[C@H]1CO[C@H](c2cccc(F)c2)[C@@H](C)N1` (relative stereo) [Example 1, (+-)-(2R*,3R*,5S*)-2-(3-fluorophenyl)-3,5-dimethylmorpholine hydrochloride], ED50 4 mg/kg. Against it:
- C[C@H]1CO[C@H](c2ccc(F)cc2)[C@@H](C)N1 [Example 6, (2R,3R,5S)-2-(4-fluorophenyl)-3,5-dimethylmorpholine hydrochloride] — 2.5-fold higher, 10 mg/kg
- C[C@@H]1[C@@H](c2ccc(F)cc2)OC[C@H](C)N1C (relative stereo) [Example 18, (+-)-(2R*,3R*,5S*)-2-(4-fluorophenyl)-3,4,5-trimethylmorpholine] — 1.5-fold higher, 6 mg/kg
- C[C@@H]1CO[C@@H](c2cccc(F)c2)[C@H](C)N1C [Example 16, (2S,3S,5R)-2-(3-fluorophenyl)-3,4,5-trimethylmorpholine hydrochloride] — 2-fold higher, 8 mg/kg
- C[C@@H]1[C@@H](c2cccc(F)c2)OC[C@H](C)N1C (relative stereo) [Example 14, (+-)-(2R*,3R*,5S*)-2-(3-fluorophenyl)-3,4,5-trimethylmorpholine hydrochloride] — 2-fold higher, 8 mg/kg
- C[C@H]1CO[C@H](c2cccc(F)c2F)[C@@H](C)N1 (relative stereo) [Example 7, (+-)-(2R*,3R*,5S*)-2-(2,3-difluorophenyl)-3,5-dimethylmorpholine hydrochloride] — the same, 4 mg/kg
- C[C@H]1CO[C@H](c2ccc(F)cc2)[C@@H](C)N1 (relative stereo) [Example 13, (+-)-(2R*,3R*,5S*)-2-(4-fluorophenyl)-3,5-dimethylmorpholine hydrochloride] — the same, 4 mg/kg
- C[C@@H]1CO[C@@H](c2ccc(F)c(F)c2)[C@H](C)N1.Cl [Example 2, (2S,3S,5R)-2-(3,4-difluorophenyl)-3,5-dimethylmorpholine hydrochloride] — 2-fold higher, 8 mg/kg
- C[C@@H]1CO[C@@H](c2ccc(F)cc2)[C@H](C)N1 [Example 12, (2S,3S,5R)-2-(4-fluorophenyl)-3,5-dimethylmorpholine hydrochloride] — 1.5-fold higher, 6 mg/kg
